Values quoted from earlier work as cited in patent publication US12318461B2, “Salicylic acid gel” (Vantage Specialty Ingredients, Inc., priority 2012, dated 2025).

- solubility in water: poorly soluble
Structure (SMILES): O=C(O)c1ccccc1O [Salicylic acid, 2-hydroxybenzenecarboxylic acid]
